The assay deals with cruzain (cruzipain), Trypanosoma cruzi. The assay is described as follows: cruzain protease inhibitors, dose response, biochemical, dry powder (AID 651897). Conditions: purified recombinant cruzain, Z-Phe-Arg-AMC fluorescence.

The term IC50 denotes the concentration that gives 50% inhibition. With `C[C@H]1CN([C@@H](C)CO)C(=O)c2cccc(NC(=O)c3ccncc3)c2O[C@@H]1CN(C)Cc1ccc(Oc2ccccc2)cc1`, the IC50 is 13.2 µM.

The values above are taken from PubChem BioAssay AID651897 (Broad Institute, 2012).
